The values below come from patent US20250367211A1, “RESCUE TREATMENT OF POST OPERATIVE NAUSEA AND VOMITING” (ACACIA PHARMA LIMITED, priority 2017, published 2025).

The structures appear in SMILES notation.

In assay [1] the test system is patients with PONV who had not received prior prophylaxis. Put plainly: Clinical trial, treatment of PONV in patients without prior prophylaxis. To be noted: no prior prophylaxis. It is filed as in vivo, human. Here is the method: In another clinical trial conducted by the applicant, amisulpride at doses of 5 mg and 10 mg were compared with placebo for the treatment of PONV, in patients who had not received prior prophylaxis.

For assay [2], the system named is adult surgical patients at moderate-to-high risk of suffering PONV. The assay can be described thus: Phase II dose-ranging trial, IV amisulpride for PONV prophylaxis. It is filed as in vivo, human. Here is the method:
In a multi-centre, double-blind, randomised, dose-ranging Phase II trial (conducted by the applicant), amisulpride was given intravenously to adult surgical patients at moderate-to-high risk of suffering PONV (prophylaxis), at doses of 1 mg, 5 mg and 20 mg, with a fourth group receiving placebo.

The test system of assay [3] is adult surgical patients at high risk of suffering PONV. Put plainly: Phase III trial, PONV prophylaxis in combination with a standard anti-emetic. It is filed as in vivo, human. To be noted: 5 mg in combination with a standard anti-emetic, 1147 evaluable patients, p<0.001 vs placebo plus standard anti-emetic (53%).
Assay [4] deals with adult surgical patients at moderate-to-high risk of suffering PONV. Put plainly: Two Phase III placebo-controlled trials, PONV prophylaxis. It counts as in vivo, human. To be noted: 5 mg, 626 evaluable patients, p<0.01 vs placebo (59%).
In assay [5] the test system is adult patients with established PONV who have had prior PONV prophylaxis. Put plainly: Study 1: rescue treatment of established PONV after failed prior prophylaxis. It is filed as in vivo, human. To be noted: for complete response (CR) rate: no emesis 30 min to 24 h and no rescue medication in 24 h, placebo 28.5%. Here is the method: A randomised, double-blind, placebo-controlled study of amisulpride for IV injection as treatment of established postoperative nausea and vomiting, in patients who have had prior prophylaxis was conducted. The primary aim of the study was to compare the efficacy of 5 mg and 10 mg amisulpride to placebo as treatment of established PONV, in patients who have had prior PONV prophylaxis.
The study was performed in adult patients (≥18 years) with an expected duration of inhalational anaesthesia of at least 1 hour, who experienced PONV in the 24-hour period after surgery, having had prior PONV prophylaxis.
Amisulpride at a dose of 5 mg or 10 mg or matching placebo was given once by slow IV administration, over about 2 minutes.
The primary efficacy variable was the dichotomous variable: success or failure of initial PONV treatment, where success is defined as no emetic episodes (vomiting or retching) from 30 minutes to 24 hours after administration of study medication and no administration of antiemetic rescue medication at any time in the 24-hour period after study medication (a “complete response”).
The secondary efficacy variables included: • The occurrence and severity of nausea (a VRS score >0) and of significant nausea (a VRS score ≥4), including measures of the time course of nausea, such as area under the curve for nausea scores for time periods up to 24 hours. • The occurrence of vomiting (to include retching) after administration of study medication. • Use of anti-emetic rescue medication. • Time to failure of initial PONV treatment. • Sub-analyses of success and failure according to various parameters, including by time of onset of PONV relative to end of surgery and by sex.

The conditions of assay [6]: compared with the (R+)-enantiomer; cited from earlier work.

Consider `CCN1CCCC1CNC(=O)c1cc(S(=O)(=O)CC)c(N)cc1OC` (racemic) [amisulpride], for which the “treatment of PONV versus placebo” value in assay [1] (5 mg) and in assay [1] (10 mg) was “significantly better than placebo” throughout. Further, the “clinical efficacy, 5 mg versus 10 mg dose” value in assay [1] (treatment of PONV) was “no difference”. In addition, the “incidence of PONV” value in assay [2] (1 mg intravenously, p<0.05 vs placebo (69%)) came out at 48%; in assay [2] (5 mg intravenously, p<0.01 vs placebo (69%)) it was 40%; in assay [3] it was 42%; in assay [4], 48%. Also, the “incidence of PONV compared to placebo” value in assay [2] (20 mg intravenously, placebo 69%, not stated as significant) was “lower”. Further, the “complete response (CR) rate” value in assay [5] (5 mg once by slow IV, 237 patients, p = 0.109) was 33.8% (p = 0.109); in assay [5] (10 mg once by slow IV, 230 patients, p = 0.003) it was 41.7%, (p = 0.003). Further, the “efficacy as PONV rescue treatment, 10 mg versus 5 mg dose” value in assay [5] (patients with prior unsuccessful PONV prophylaxis) is “more effective”.

On to `CCN1CCCC1CNC(=O)c1cc(S(=O)(=O)CC)c(N)cc1OC` (stereo not drawn) [(S−)-amisulpride], for which, in assay [6], the “share of therapeutic activity of amisulpride” value is “almost all of the therapeutic activity”.
